Reference: ChEMBL document CHEMBL1152099, “C5-piperazinyl-1,4-benzodiazepines, water-soluble, orally bioa vailable CCKB/gastrin receptor antagonists” (Bioorg Med Chem Lett, 1995)
Values after ≈ are worked out from the molar mass of the structure shown.

How the values were obtained:
[1] = target: T1, Cholecystokinin receptor type A (Rattus norvegicus) (UniProt P30551); assay: Compound was tested for its binding affinity by measuring the displacement of [125I]-BH CCK-8S from CCKA receptor in rat pancreas at a concentration of 3000 nM
T1 sequence (whole entry): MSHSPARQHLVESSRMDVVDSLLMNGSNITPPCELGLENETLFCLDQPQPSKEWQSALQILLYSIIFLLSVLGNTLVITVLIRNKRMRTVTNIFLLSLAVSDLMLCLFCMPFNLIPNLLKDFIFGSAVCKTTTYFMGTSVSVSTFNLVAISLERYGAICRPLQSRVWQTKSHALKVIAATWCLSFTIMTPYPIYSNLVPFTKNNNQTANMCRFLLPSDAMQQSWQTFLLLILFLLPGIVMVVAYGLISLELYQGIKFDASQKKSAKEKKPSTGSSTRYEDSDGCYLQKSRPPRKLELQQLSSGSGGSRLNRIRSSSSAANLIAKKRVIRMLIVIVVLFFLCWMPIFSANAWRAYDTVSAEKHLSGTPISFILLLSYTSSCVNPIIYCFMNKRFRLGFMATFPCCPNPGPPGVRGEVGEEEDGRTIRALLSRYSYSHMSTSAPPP

[2] = target: T2, Cholecystokinin receptor type A (Rattus norvegicus, UniProt P30551); assay: Displacement of [125I]-BH CCK-8S from Cholecystokinin type A receptor in rat pancreas
T2 sequence (P30551 whole entry): T1 sequence (whole entry)

Rattus norvegicus = organism: Rattus norvegicus; assay: Compound was tested for its ability to block pentagastrin-induced single cell firing rate of rat ventromedial hyphalamic (VMH) neurons; format: functional
[3] = Compound was tested for solubility in water; format: ADME; conditions: read-out: S
[4] = Maximum plasma drug concentration was determined; format: ADME, organism-based; conditions: rat
[5] = Tmax was determined; format: ADME, organism-based; conditions: rat, in vivo
[6] = Plasma half-life was determined; format: ADME, organism-based; conditions: rat
[7] = Bioavailability; format: ADME, organism-based; conditions: rat, in vivo

Row | inhibition [1] | IC50 [2] | Compound | other results
1 | 0% | > 3 µM | Cc1cccc(NC(=O)NC2N=C(N3CCN(C(=O)OC(C)(C)C)CC3)c3ccccc3N(C)C2=O)c1 (configuration not stated) | 
2 |  | 1.9 µM | CCCN1C(=O)[C@@H](NC(=O)Nc2cccc(C)c2)N=C(N2CCN(C)CC2)c2ccccc21 | 
3 | 46% | > 3 µM | CCCN1C(=O)C(NC(=O)Nc2cccc(CC)c2)N=C(N2CCN(C)CC2)c2ccccc21 (configuration not stated) | 
4 |  | 3.8 µM | CCCN1C(=O)C(NC(=O)Nc2cccc(C(F)(F)F)c2)N=C(N2CCN(C)CC2)c2ccccc21 (configuration not stated) | 
5 |  | 5.31 µM | CCCc1cccc(NC(=O)NC2N=C(N3CCN(C)CC3)c3ccccc3N(CCC)C2=O)c1 (configuration not stated) | 
6 |  | 4.26 µM | Cc1cccc(NC(=O)NC2N=C(N3CCN(C)CC3)c3ccccc3N(C)C2=O)c1 (configuration not stated) | 
7 | 3% | > 3 µM | Cc1cccc(NC(=O)NC2N=C(N3CCNCC3)c3ccccc3N(C)C2=O)c1 (configuration not stated) | 
8 | 11% | > 3 µM | CCCN1C(=O)[C@H](NC(=O)Nc2cccc(C)c2)N=C(N2CCN(C)CC2)c2ccccc21 | Kb (Rattus norvegicus): 0.0018 µM; solubility [3]: 600 µg/mL (≈ 1340 µM); Cmax [4]: 469 ng/mL; Tmax [5]: 5 min; half-life [6]: 55 min; bioavailability [7]: 51%
9 |  | 3.2 µM | CCCN1C(=O)C(NC(=O)Nc2cccc(C)c2)N=C(N2CCN(C)CC2)c2ccccc21 (configuration not stated) | 
10 | 15% | > 3 µM | CCCN1C(=O)C(NC(=O)Nc2cccc(OC)c2)N=C(N2CCN(C)CC2)c2ccccc21 (configuration not stated) | 

Row | Compound | inhibition [1] | IC50 [2] | other results
11 | Cc1cccc(NC(=O)N[C@@H]2N=C(c3ccccc3)c3ccccc3N3C[C@H](C)N=C23)c1 |  | 1.56 µM | 
